{
  "source": "patent US20010049369A1",
  "about": "“Brimonidine compositions and methods for retinal degeneration” (priority 2000, published 2001)",
  "key": {"[1]": {"test_system": "mitogen-activated protein kinase (MAPK)", "details": "systemically administered (Peng et al., 1998); cited from earlier work"}, "photoreceptors": {"test_system": "photoreceptors", "details": "albino rats, cited from earlier work; for protection of photoreceptors from light damage: systemic administration (Wen et al., 1996)"}, "[2]": {"details": "topically applied, glaucomatous patients (Lachkar 1998; Carlsson 1999); cited from earlier work"}, "[3]": {"test_system": "retinal degeneration (RP)", "details": "patients with RP, 15,000 I.U. daily (Berson 1993); cited from earlier work"}, "cAMP": {"test_system": "cAMP", "details": "retina (Osborne 1991); cited from earlier work"}, "[4]": {"test_system": "Müller cells of RPE-free eye rudiments", "details": "for upregulation of GFAP induced by RPE removal: brimonidine added to culture media; for glutamine synthetase (GS) immunoreactivity: brimonidine-treated RPE-free eye rudiments", "experimental": "(§1) The following studies were performed on Xenopus embryos. Briefly, eye rudiments were removed from stage 33/34 Xenopus embryos. The RPE was peeled from the outer retinal surface and eyes were cultured for 3 days in Niu-Twitty (NT) medium. The same experiment was performed in NT medium containing 0.001% brimonidine. Control conditions included eye rudiments cultured with the RPE and eyes allowed to mature in vivo to an equivalent developmental stage. Retinal morphology was assessed, carefully evaluating PRs and MCs.\n(§2) The culture preparation used in these studies has been previously described (Hollyfield, 1974; Lolley, 1977; Stiemke, 1994; Stiemke, 1995; and Jablonski, 1999). The handling of animals was in accordance with the Declaration of Helsinki and The Guiding Principles in the Care and Use of Animals (DHEW Publication, NIH 80-23). Human chorionic gonadotropin (Sigma Chemical Co., St. Louis, Mo.) was to induce adult Xenopus laevis to breed. The external staging system of Nieuwkoop and Faber was used to determine retinal maturity (Nieuwkoop, 1956). Embryos and isolated eyes were maintained under cyclic lighting conditions (12 hour light: 12 hour dark) in all experiments, rudimentary eyes were removed from embryos at state 33/34, just as photoreceptor outer segments are beginning to form (Stiemke, 1994). Eyes were maintained in vitro for three days at 23° C. in Niu-Twitty medium (Jacobson, 1967) after which they were fixed for subsequent analyses.\nWhen appropriate, the overlying RPE was gently peeled away from the neuroepithelium using finely polished forceps, leaving the underlying retina exposed to the culture medium. Eye rudiments without a closely adherent RPE were cultured in Niu-Twitty media alone, Niu-Twitty containing 0.001% brimonidine. Eyes allowed to mature in vitro in the presence of an adherent RPE in Niu-Twitty medium alone were used as controls.\nAny eye with an uneven surface or which had many loose cells associated with it was discarded."}, "[5]": {"details": "expected, topical administration, to be verified", "text": "The intraocular concentration is likely to be inversely proportional to the surface area available for absorption. […] Once verified, the dosage of brimonidine in eyedrops will be adjusted accordingly (10:1 dilution, i.e. 0.02%) to mimic more closely the intraocular concentrations that would be reached during human application.\nThe intraocular concentration is likely to be inversely proportional to the surface area available for absorption. […] Once verified, the dosage of brimonidine in the eyedrops would be adjusted accordingly (predicted to be a 10:1 dilution, i.e., 0.02%) to mimic more closely the intraocular concentrations that would be reached during human application."}, "[6]": {"details": "rabbit, cited from earlier work"}, "opsin": {"test_system": "opsin", "details": "0.0001% brimonidine in culture media", "experimental": "as §1\nas §2, with “Eyes were maintained in vitro for three days at 23° C. in Niu-Twitty medium (Jacobson, 1967) after which they were fixed for subsequent analyses.” left out"}, "ischemic retinal injury": {"test_system": "ischemic retinal injury", "details": "cited from earlier work"}, "[7]": {"details": "topical administration to the eye, animals and clinical trials; cited from earlier work"}, "retinal ganglion cells": {"test_system": "retinal ganglion cells", "details": "rat, intraperitoneal administration (Yoles et al 1999); cited from earlier work"}, "[8]": {"details": "primate, 2% solution of brimonidine tartrate, twice daily; cited from earlier work"}},
  "note": "Read-outs that look alike come from different tables or passages of the source.",
  "data": [
    {"molecule": "Cc1cccc(C)c1N=C1NCCCS1", "note": "[xylazine]", "values": [
      {"measurement": "MAPK phosphorylation in Müller cells", "setting": "[1]", "value": "activate selectively and specifically"},
      {"measurement": "protection of photoreceptors from light damage", "setting": "photoreceptors", "value": "protect the photoreceptors of albino rats from light damage"}
    ]},
    {"molecule": "COC(=O)[C@@H]1[C@H]2C[C@H]3c4[nH]c5ccccc5c4CCN3C[C@@H]2CC[C@@H]1O", "note": "[yohimbine]", "values": [
      {"measurement": "effect of pretreatment on the protective effect of xylazine and clonidine", "setting": "photoreceptors; pretreatment with the antagonist (Wen et al., 1996)", "value": "prevented the protective effect"}
    ]},
    {"molecule": "brimonidine tartrate", "values": [
      {"measurement": "blood flow in ophthalmic, central retinal, nasal and temporal ciliary arteries", "setting": "[2]", "value": "did not affect the blood flow"}
    ]},
    {"molecule": "CCCCCCCCCCCCCCCC(=O)OC/C=C(C)/C=C/C=C(C)/C=C/C1=C(C)CCCC1(C)C", "note": "[vitamin A palmitate]", "values": [
      {"measurement": "progression of retinal degeneration", "setting": "[3]", "value": "slowed, but did not prevent, the progression of retinal degeneration"}
    ]},
    {"molecule": "Brc1c(NC2=NCCN2)ccc2nccnc12", "note": "[UK 14304]", "values": [
      {"measurement": "cAMP levels following stimulation with forskolin and VIP", "setting": "cAMP", "value": "reduce cAMP levels"}
    ]},
    {"molecule": "Brc1c(NC2=NCCN2)ccc2nccnc12", "note": "[brimonidine, 5-bromo-6-(2-imidazolidinylideneamino)-quinoxaline]", "values": [
      {"measurement": "n-cadherin immunolocalization patterns", "setting": "[4]; 0.0001% brimonidine, RPE removed, data not shown", "value": "preserved"},
      {"measurement": "upregulation of GFAP induced by RPE removal", "setting": "[4]; RPE removed", "value": "virtually abolished"},
      {"measurement": "upregulation of GFAP induced by RPE removal", "setting": "[4]; RPE removed, listed as Brimonidine", "value": "prevented the upregulation of GFAP expression"},
      {"measurement": "glutamine synthetase (GS) immunoreactivity", "setting": "[4]", "value": "well preserved"},
      {"measurement": "glutamine synthetase (GS) immunoreactivity", "setting": "[4]; listed as Brimonidine", "value": "allows Müller cells to express glutamine synthetase in the absence of the RPE"},
      {"measurement": "intraocular concentration in mouse eye relative to primate eye", "setting": "[5]", "value": "approximately 10 times"},
      {"measurement": "intravitreal concentration reached via topical administration", "setting": "[6]; 2% solution of brimonidine tartrate, twice daily", "value": 450, "unit": "nM"},
      {"measurement": "concentration reaching the fellow eye via the systemic circulation", "setting": "[6]; topical administration to the other eye", "value": "< 15", "unit": "nM"},
      {"measurement": "amount of opsin/eye compared to RPE-free eyes cultured without brimonidine", "setting": "opsin", "value": "marked increase"},
      {"measurement": "ERG b-wave truncation due to ischemia", "setting": "ischemic retinal injury; retinal ischemia", "value": "partially prevent this b-wave truncation"},
      {"measurement": "ischemic retinal injury", "setting": "ischemic retinal injury; topically applied 1 hour before injury (Wheeler et al. 1999)", "value": "effective in decreasing ischemic retinal injury"},
      {"measurement": "intraocular pressure (IOP)", "setting": "[7]", "value": "decrease in intraocular pressure"},
      {"measurement": "loss of retinal ganglion cells induced by the crush", "setting": "retinal ganglion cells", "value": "effective in decreasing loss of retinal ganglion cells"},
      {"measurement": "intravitreal concentration reached via topical administration", "setting": "[8]", "value": 100, "unit": "nM"}
    ]},
    {"molecule": "Clc1cccc(Cl)c1N=C1NCCN1", "note": "[clonidine]", "values": [
      {"measurement": "MAPK phosphorylation in Müller cells", "setting": "[1]", "value": "activate selectively and specifically"},
      {"measurement": "protection of photoreceptors from light damage", "setting": "photoreceptors", "value": "protect the photoreceptors of albino rats from light damage"},
      {"measurement": "cAMP levels following stimulation with forskolin and VIP", "setting": "cAMP", "value": "reduce cAMP levels"}
    ]}
  ]
}
